Results: patent US8778881B2 (priority 2004, dated 2014)
pEC50: −log10 of the molar value. Like-named read-outs stand apart in the source and are kept apart here. Each block holds one compound with its values, some of them ahead of it. Bridge positions count the residues as written; N and C are the ends. Square brackets hold non-standard residues; d marks the D form. Peptide text beside a SMILES is read from it. * marks the point of attachment. Ala(4-thiazolyl) = N[C@@H](Cc1cscn1)C(=O)O; Ala(2-furyl) = N[C@@H](Cc1ccco1)C(=O)O; Orn(iPr) = CC(C)NCCC[C@H](N)C(=O)O; Dab(iPr) = CC(C)NCC[C@H](N)C(=O)O; 2Pal = N[C@@H](Cc1ccccn1)C(=O)O; 4Pal = N[C@@H](Cc1ccncc1)C(=O)O; 2Thi = N[C@@H](Cc1cccs1)C(=O)O; 3Thi = N[C@@H](Cc1ccsc1)C(=O)O; Aad = N[C@@H](CCCC(=O)O)C(=O)O; Orn = NCCC[C@H](N)C(=O)O; Dab = NCC[C@H](N)C(=O)O; NHCH2CH2OH = OCCN*; NHiBu = CC(C)CN*; NHOH = ON*

Columns and labels:
hV1a receptor = target: T1, hV1a receptor (Homo sapiens, UniProt P37288); test: hV1a receptor transcriptional reporter (luciferase) agonist assay in HEK-293 cells; assay type: cell-based
T1 construct: expressed in transfected cells; host or cells: HEK-293 cells (transient transfection)
Protocol: (§1) Agonist activity of compounds on the hV1a receptor was determined in a transcriptional reporter assay by transiently transfecting a hV1a receptor expression DNA into HEK-293 cells in concert with a reporter DNA containing intracellular calcium responsive promoter elements regulating expression of firefly luciferase. See Boss, V., Talpade, D. J., Murphy, T. J. J. Biol. Chem. 1996, May 3; 271(18), 10429-10432 for further guidance on this assay. […] To determine selectivity, compounds were tested in luciferase-based transcriptional reporter assays expressing the human oxytocin (hOT) receptor. Assays for other receptors (hV2, hV1b, rat V1a and rat V2) were also conducted.
(§2) The EC50 value given is the geometric mean expressed in nanomol/L (nM). Selectivity values are given as EC50 ratios.

[1] = target: T2, human oxytocin (hOT) receptor (Homo sapiens, UniProt P30559); test: luciferase-based transcriptional reporter assay expressing the human oxytocin (hOT) receptor, for selectivity; assay type: cell-based
T2 construct: expressed in transfected cells
T2 sequence (P30559 1-389): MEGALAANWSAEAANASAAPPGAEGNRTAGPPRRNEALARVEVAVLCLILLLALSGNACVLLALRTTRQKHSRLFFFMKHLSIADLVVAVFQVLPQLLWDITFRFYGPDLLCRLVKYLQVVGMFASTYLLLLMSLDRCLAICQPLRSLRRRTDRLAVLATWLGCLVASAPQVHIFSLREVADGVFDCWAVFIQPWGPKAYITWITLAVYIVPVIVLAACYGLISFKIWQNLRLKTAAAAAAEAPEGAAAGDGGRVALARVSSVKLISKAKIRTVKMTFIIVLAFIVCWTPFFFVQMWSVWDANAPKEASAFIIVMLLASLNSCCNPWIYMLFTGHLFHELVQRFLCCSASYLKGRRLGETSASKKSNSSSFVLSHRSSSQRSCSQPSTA
Protocol: as §1, §2

[2] = agonist efficacy at the hOT receptor compared to AVP, ratio not determined

T1 sequence (P37288 whole entry): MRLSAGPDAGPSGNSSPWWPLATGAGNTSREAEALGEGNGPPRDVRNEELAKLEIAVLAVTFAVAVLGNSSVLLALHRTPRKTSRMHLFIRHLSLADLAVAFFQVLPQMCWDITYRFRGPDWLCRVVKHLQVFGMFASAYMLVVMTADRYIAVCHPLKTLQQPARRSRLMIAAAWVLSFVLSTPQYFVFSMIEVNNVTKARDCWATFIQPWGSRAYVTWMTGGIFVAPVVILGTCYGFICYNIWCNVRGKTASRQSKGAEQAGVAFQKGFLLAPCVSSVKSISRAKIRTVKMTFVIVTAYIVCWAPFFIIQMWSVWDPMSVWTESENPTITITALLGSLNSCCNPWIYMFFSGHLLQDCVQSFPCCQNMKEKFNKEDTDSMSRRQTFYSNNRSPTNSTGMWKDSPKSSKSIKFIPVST

SMILES: CC[C@H](C)[C@@H]1NC(=O)[C@H](Cc2ccccc2)NC(=O)[C@@H](N)CSSC[C@@H](C(=O)N2CCC[C@H]2C(=O)N[C@@H](CCCNC(C)C)C(=O)NCC(N)=O)NC(=O)[C@H](CC(N)=O)NC(=O)[C@H](CCCC(N)=O)NC1=O [Compound 1, [Phe^2, Hgn^4, Orn (i-Pr)^8]VT] (H-CFI[Aad](NH2)NCP[Orn(iPr)]G-NH2; disulfide 1-6; N-terminus assumed)
- pEC50 (hV1a receptor): 8.69

SMILES: CC[C@H](C)[C@@H]1NC(=O)[C@H](Cc2ccccc2)NC(=O)[C@@H](N)CSSC[C@@H](C(=O)N2CCC[C@H]2C(=O)N[C@@H](CCCN)C(=O)NCC(N)=O)NC(=O)[C@H](CC(N)=O)NC(=O)[C@H](CC(=O)NCCO)NC1=O [Compound 23] (H-CFID(NHCH2CH2OH)NCP[Orn]G-NH2; disulfide 1-6; N-terminus and C-terminus assumed)
- selectivity hOT/hV1a (class symbol) [1, 2]: + (selective hV1a receptor agonist; EC50 hOT/hV1a ratio not determined due to very low agonist efficacy (<30% compared to AVP) at the hOT receptor)

SMILES: CC[C@H](C)[C@@H]1NC(=O)[C@H](Cc2ccccc2)NC(=O)[C@@H](N)CSSC[C@@H](C(=O)N2CCC[C@H]2C(=O)N[C@@H](CCCN)C(=O)NCC(N)=O)NC(=O)[C@H](CC(N)=O)NC(=O)[C@H](CC(=O)NO)NC1=O [Compound 24] (H-CFID(NHOH)NCP[Orn]G-NH2; disulfide 1-6; N-terminus and C-terminus assumed)
- selectivity hOT/hV1a (class symbol) [1, 2]: + (selective hV1a receptor agonist; EC50 hOT/hV1a ratio not determined due to very low agonist efficacy (<30% compared to AVP) at the hOT receptor)

SMILES: NCCCC[C@H](NC(=O)[C@@H]1CCCN1C(=O)[C@@H]1CSSC[C@H](NC(=O)CNC(=O)CNC(=O)CN)C(=O)N[C@@H](Cc2ccc(O)cc2)C(=O)N[C@@H](Cc2ccccc2)C(=O)N[C@@H](CCC(N)=O)C(=O)N[C@@H](CC(N)=O)C(=O)N1)C(=O)NCC(N)=O [terlipressin, reference compound] (H-GGGCYFQNCPKG-NH2; disulfide 4-9)
- selectivity hOT/hV1a (class symbol) [1, 2]: + (selective hV1a receptor agonist; EC50 hOT/hV1a ratio not determined due to very low agonist efficacy (<30% compared to AVP) at the hOT receptor)

SMILES: CC[C@H](C)[C@@H]1NC(=O)[C@H](Cc2ccccc2)NC(=O)[C@@H](N)CSSC[C@@H](C(=O)N2CCC[C@H]2C(=O)N[C@@H](CCCN)C(=O)NCC(N)=O)NC(=O)[C@H](CC(N)=O)NC(=O)[C@H](CCC(=O)NCC(C)C)NC1=O [Compound 21] (H-CFIE(NHiBu)NCP[Orn]G-NH2; disulfide 1-6; N-terminus and C-terminus assumed)
- selectivity hOT/hV1a (class symbol) [1, 2]: + (selective hV1a receptor agonist; EC50 hOT/hV1a ratio not determined due to very low agonist efficacy (<30% compared to AVP) at the hOT receptor)

- pEC50 (hV1a receptor; geometric mean, HEK-293 cells transiently transfected, 5 hours exposure, at least three independent experiments, read-out: EC50 hV1a receptor): 8.63
SMILES: CCNC(=O)C[C@@H]1NC(=O)[C@H]([C@@H](C)CC)NC(=O)[C@H](Cc2ccccc2)NC(=O)[C@@H](N)CSSC[C@@H](C(=O)N2CCC[C@H]2C(=O)N[C@@H](CCN)C(=O)NCC(N)=O)NC(=O)[C@H](CC(N)=O)NC1=O [Compound 4, [Phe^2,Asn (Et)^4, Dbu^8]VT] (H-CFID(NHEt)NCP[Dab]G-NH2; disulfide 1-6)

SMILES: CC[C@H](C)[C@@H]1NC(=O)[C@H](Cc2ccccc2)NC(=O)[C@@H](N)CSSC[C@@H](C(=O)N2CCC[C@H]2C(=O)N[C@@H](CCCN)C(=O)NCC(N)=O)NC(=O)[C@H](CC(N)=O)NC(=O)[C@H](CCCC(N)=O)NC1=O [Compound 9] (H-CFI[Aad](NH2)NCP[Orn]G-NH2; disulfide 1-6)
- selectivity hOT/hV1a (class symbol) [1]: + (key: +: selective hV1a receptor agonist; EC50 hOT/hV1a ratio not determined due to very low agonist efficacy (<30% compared to AVP) at the hOT receptor)

SMILES: CC[C@H](C)[C@@H]1NC(=O)[C@H](Cc2ccsc2)NC(=O)[C@@H](N)CSSC[C@@H](C(=O)N2CCC[C@H]2C(=O)N[C@@H](CCN)C(=O)NCC(N)=O)NC(=O)[C@H](CC(N)=O)NC(=O)[C@H](CC(N)=O)NC1=O [Compound 37] (H-C[3Thi]INNCP[Dab]G-NH2; disulfide 1-6; N-terminus and C-terminus assumed)
- selectivity hOT/hV1a (class symbol) [1, 2]: + (selective hV1a receptor agonist; EC50 hOT/hV1a ratio not determined due to very low agonist efficacy (<30% compared to AVP) at the hOT receptor)

SMILES: CC[C@H](C)[C@@H]1NC(=O)[C@H](Cc2ccco2)NC(=O)[C@@H](N)CSSC[C@@H](C(=O)N2CCC[C@H]2C(=O)N[C@@H](CCCN)C(=O)NCC(N)=O)NC(=O)[C@H](CC(N)=O)NC(=O)[C@H](CCC(N)=O)NC1=O [Compound 32] (H-C[Ala(2-furyl)]IQNCP[Orn]G-NH2; disulfide 1-6)
- pEC50 (hV1a receptor; read-out: EC50 hV1a receptor): 8.58

SMILES: CC[C@H](C)[C@@H]1NC(=O)[C@H](Cc2ccsc2)NC(=O)[C@@H](N)CSSC[C@@H](C(=O)N2CCC[C@H]2C(=O)N[C@@H](CCCN)C(=O)NCC(N)=O)NC(=O)[C@H](CC(N)=O)NC(=O)[C@H](CC(N)=O)NC1=O [Compound 35] (H-C[3Thi]INNCP[Orn]G-NH2; disulfide 1-6; N-terminus and C-terminus assumed)
- selectivity hOT/hV1a (class symbol) [1, 2]: + (selective hV1a receptor agonist; EC50 hOT/hV1a ratio not determined due to very low agonist efficacy (<30% compared to AVP) at the hOT receptor)

SMILES: CC[C@H](C)[C@@H]1NC(=O)[C@H](Cc2cccs2)NC(=O)[C@@H](N)CSSC[C@@H](C(=O)N2CCC[C@H]2C(=O)N[C@@H](CCCN)C(=O)NCC(N)=O)NC(=O)[C@H](CC(N)=O)NC(=O)[C@H](CC(N)=O)NC1=O [Compound 33] (H-C[2Thi]INNCP[Orn]G-NH2; disulfide 1-6; N-terminus and C-terminus assumed)
- selectivity hOT/hV1a (class symbol) [1, 2]: + (selective hV1a receptor agonist; EC50 hOT/hV1a ratio not determined due to very low agonist efficacy (<30% compared to AVP) at the hOT receptor)

SMILES: CC[C@H](C)[C@@H]1NC(=O)[C@H](Cc2ccccn2)NC(=O)[C@@H](N)CSSC[C@@H](C(=O)N2CCC[C@H]2C(=O)N[C@@H](CCN)C(=O)NCC(N)=O)NC(=O)[C@H](CC(N)=O)NC(=O)[C@H](CCC(N)=O)NC1=O [Compound 17] (H-C[2Pal]IQNCP[Dab]G-NH2; disulfide 1-6)
- selectivity hOT/hV1a (class symbol) [1]: + (key: +: selective hV1a receptor agonist; EC50 hOT/hV1a ratio not determined due to very low agonist efficacy (<30% compared to AVP) at the hOT receptor)

SMILES: CC[C@H](C)[C@@H]1NC(=O)[C@H](Cc2cscn2)NC(=O)[C@@H](N)CSSC[C@@H](C(=O)N2CCC[C@H]2C(=O)N[C@@H](CCN)C(=O)NCC(N)=O)NC(=O)[C@H](CC(N)=O)NC(=O)[C@H](CCC(N)=O)NC1=O [Compound 13] (H-C[Ala(4-thiazolyl)]IQNCP[Dab]G-NH2; disulfide 1-6; N-terminus and C-terminus assumed)
- selectivity hOT/hV1a (class symbol) [1, 2]: + (selective hV1a receptor agonist; EC50 hOT/hV1a ratio not determined due to very low agonist efficacy (<30% compared to AVP) at the hOT receptor)

SMILES: CC[C@H](C)[C@@H]1NC(=O)[C@H](Cc2ccccc2)NC(=O)[C@@H](N)CSSC[C@@H](C(=O)N2CCC[C@H]2C(=O)N[C@@H](CCNC(C)C)C(=O)NCC(N)=O)NC(=O)[C@H](CC(N)=O)NC(=O)[C@H](CCCC(N)=O)NC1=O [Compound 22] (H-CFI[Aad](NH2)NCP[Dab(iPr)]G-NH2; disulfide 1-6; N-terminus and C-terminus assumed)
- selectivity hOT/hV1a (class symbol) [1, 2]: + (selective hV1a receptor agonist; EC50 hOT/hV1a ratio not determined due to very low agonist efficacy (<30% compared to AVP) at the hOT receptor)

SMILES: CCNC(=O)CC[C@@H]1NC(=O)[C@H]([C@@H](C)CC)NC(=O)[C@H](Cc2ccccc2)NC(=O)[C@@H](N)CSSC[C@@H](C(=O)N2CCC[C@H]2C(=O)N[C@@H](CCCN)C(=O)NCC(N)=O)NC(=O)[C@H](CC(N)=O)NC1=O [Compound 20] (H-CFIE(NHEt)NCP[Orn]G-NH2; disulfide 1-6; N-terminus and C-terminus assumed)
- selectivity hOT/hV1a (class symbol) [1, 2]: + (selective hV1a receptor agonist; EC50 hOT/hV1a ratio not determined due to very low agonist efficacy (<30% compared to AVP) at the hOT receptor)

SMILES: CC[C@H](C)[C@@H]1NC(=O)[C@H](Cc2ccncc2)NC(=O)[C@@H](N)CSSC[C@@H](C(=O)N2CCC[C@H]2C(=O)N[C@@H](CCN)C(=O)NCC(N)=O)NC(=O)[C@H](CC(N)=O)NC(=O)[C@H](CCC(N)=O)NC1=O [Compound 12] (H-C[4Pal]IQNCP[Dab]G-NH2; disulfide 1-6)
- selectivity hOT/hV1a (class symbol) [1]: + (key: +: selective hV1a receptor agonist; EC50 hOT/hV1a ratio not determined due to very low agonist efficacy (<30% compared to AVP) at the hOT receptor)
